Experimental data published in patent US11649269B2, “Bifunctional compounds comprising insulin peptides and EGF(A) peptides” (Novo Nordisk A/S, priority 2018, dated 2023).

Assays:
primary rat adipocytes = test: Lipogenesis in rat adipocytes; format: cell-based
Protocol: Lipogenesis in Rat Adipocytes
As a measure of in vitro potency of the insulins of the invention, lipogenesis can be used. Primary rat adipocytes are isolated from the epididymale fat pads and incubated with 3H-glucose in buffer containing e.g. 1% fat free HSA and either standard (human insulin, HI) or insulin of the invention. The labelled glucose is converted into extractable lipids in a concentration dependent way, resulting in full concentration response curves. The result is expressed as relative potency (%) with 95% confidence limits of insulin of the invention compared to standard (HI).

HepG2 cells = test: LDL uptake assay in HepG2 cells in the presence of PCSK9; format: cell-based, human; conditions: PCSK9 10 ug/mL
[1] = target: T1, human insulin receptor (IR), solubilised human IR-A (Homo sapiens, UniProt P06213); test: Insulin receptor affinity on solubilised receptors, competition binding SPA, 0% HSA; conditions: Table 3, example numbers, binding affinity relative to human insulin
T1 construct: baby hamster kidney (BHK) cells overexpressing the IR-A holoreceptor; made in house; host or cells: baby hamster kidney (BHK) cells overexpressing IR-A; detergent-solubilised, WGA semipurified

[2] = target: T1, human insulin receptor (IR), solubilised human IR-A; test: Insulin receptor affinity SPA, related assay with 1.5% HSA in binding buffer; conditions: Table 3, example numbers, binding affinity relative to human insulin
PCSK9 = target: T2, PCSK9 (Homo sapiens, UniProt Q8NBP7); test: PCSK9-LDL-R binding competitive ELISA; conditions: apparent binding affinity
T2 construct: purchased BioSite/BPSBioscience (PCSK9); R & D systems (rhLDL-R) 71304 (PCSK9); 2148-LD (rhLDL-R); host or cells: rhLDL-R: NSO-derived

[3] = in vivo
[4] = Table 3, example numbers, potency relative to human insulin
[5] = Table 4, labels are comparator compound numbers, relative to human insulin
[6] = Table 6, labels are comparator compound numbers
[7] = Table 5, example numbers, Ki converted from IC50

Substance | Lipogenesis 1% HSA (% rel to HI) (primary rat adipocytes; [4]) | Lipogenesis 1% HSA (% rel to HI) (primary rat adipocytes; [5]) | also measured
EGF(A)(301L, 309R, 312E, 321E)-[GAQP]19-Insulin(B29K(eicosanedioyl-gGlu-2×OEG), desB30) [Example 22] | 0.06 % rel to HI |  | 
EGF(A)(301L, 309R, 312E, 321E)-[GAQP]2-Insulin(B3E, B29K(octadecanedioyl-gGlu-OEG), desB30) [Example 5] |  | 0.44 % rel to HI | 
EGF(A)(301L, 309R, 312E, 321E)-[GAQP]13-Insulin(B29K(octadecanedioyl-gGlu-2×OEG), desB30) [Example 9] | 0.12 % rel to HI |  | 
EGF(A)(301L, 309R, 312E, 321E)-[GAQP]19-Insulin(B29K(octadecanedioyl-gGlu-2×OEG), desB30) [Example 19] | 0.09 % rel to HI |  | 
EGF(A)(301L, 309R, 312E, 321E)-[GAQP]119-Insulin(B3E, B29K(eicosanedioyl-gGlu-2×OEG), desB30) [Example 24] | 0.06 % rel to HI |  | 
EGF(A)(301L, 309R, 312E, 321E)-[GAQP]6-Insulin(B29K(octadecanedioyl-gGlu-2×OEG), desB30) [Example 14] | 0.10 % rel to HI |  | 
EGF(A)(301L, 309R, 312E, 321E)-[GAQP]3-Insulin(A14E, B29K(octadecanedioyl-gGlu-2×OEG), desB30) [Example 10] | 0.12 % rel to HI |  | EC50 (HepG2 cells; [6]): 152 nM
EGF(A)(301L, 309R, 312E, 321E)-[GAQP]10-Insulin(B29K(octadecanedioyl-gGlu-2×OEG), desB30) [Example 2] |  | 0.06 % rel to HI | 
EGF(A)(301L, 309R, 312E, 321E)-[GAQP]12-Insulin(B29K(octadecanedioyl-gGlu-2×OEG), desB30) [Example 18] | 0.09 % rel to HI |  | 
EGF(A)(301L, 309R, 312E, 321E)-[GAQP]2-Insulin(B3E, B29K(hexadecanedioyl-gGlu-2×OEG), desB30) [Example 1] | 0.49 % rel to HI | 0.14 % rel to HI | 
EGF(A)(301L, 309R, 312E, 321E)-[GAQP]2-Insulin(B3E, B29K(octadecanedioyl-gGlu-2×OEG), desB30) [Example 3] | 0.16 % rel to HI | 0.06 % rel to HI | 
EGF(A)(301L, 309R, 312E, 321E)-[GAQP]4-Insulin(B29K(octadecanedioyl-gGlu-2×OEG), desB30) [Example 12] | 0.14 % rel to HI |  | 
EGF(A)(301L, 309R, 312E, 321E)-[GAQP]119-Insulin(A14E, B29K(octadecanedioyl-gGlu-2×OEG), desB30) [Example 20] | 0.03 % rel to HI |  | EC50 (HepG2 cells; Table 5, example numbers): 123 nM
EGF(A)(301L, 309R, 312E, 321E)-[GAQP]4-Insulin(A14E, B29K(octadecanedioyl-gGlu-2×OEG), desB30) [Example 11] | 0.12 % rel to HI |  | 
EGF(A)(301L, 309R, 312E, 321E)-[GAQP]6-Insulin(A14E, B29K(octadecanedioyl-gGlu-2×OEG), desB30) [Example 13] | 0.11 % rel to HI |  | hIR-A 0% HSA (% rel to HI) [1]: 5.53 % rel to HI; hIR-A 1.5% HSA (% rel to HI) [2]: 0.35 % rel to HI; Ki (PCSK9; [7]): 1.92 nM; EC50 (HepG2 cells; Table 5, example numbers): 170 nM; Rat iv Mean Residence Time MRT [3]: 13.56 h
EGF(A)(301L, 309R, 312E, 321E)-[GAQP]2-Insulin(B3E, B29K(eicosanedioyl-gGlu-2×OEG), desB30) [Example 6] | 0.06 % rel to HI | 0.06 % rel to HI | Ki (PCSK9; [7]): 2.49 nM
EGF(A)(301L, 309R, 312E, 321E)-[GAQP]2-Insulin(B29K(octadecanedioyl-gGlu-2×OEG), desB30) [Example 4] | 0.13 % rel to HI | 0.07 % rel to HI | 
EGF(A)(301L, 309R, 312E, 321E)-[GAQP]6-Insulin(A14E, B29K(octadecanedioyl-gGlu-OEG), desB30) [Example 15] | 0.08 % rel to HI |  | hIR-A 0% HSA (% rel to HI) [1]: 5.70 % rel to HI; hIR-A 1.5% HSA (% rel to HI) [2]: 0.23 % rel to HI; Ki (PCSK9; [7]): 2.07 nM
EGF(A)(301L, 309R, 312E, 321E)-[GAQP]6-Insulin(A14E, B29K(eicosanedioyl-gGlu-2×OEG), desB30 [Example 16] | 0.08 % rel to HI |  | hIR-A 0% HSA (% rel to HI) [1]: 4.77 % rel to HI; hIR-A 1.5% HSA (% rel to HI) [2]: 0.26 % rel to HI; Ki (PCSK9; [7]): 1.75 nM
EGF(A)(301L, 309R, 312E, 321E)-[GQAP]2-Insulin(B29K(octadecanedioyl-gGlu-2×OEG), desB30) [Example 8] | 0.14 % rel to HI | 0.30 % rel to HI | 
EGF(A)(301L, 309R, 312E, 321E)-[GAQP]19-Insulin(A14E, B29K(eicosanedioyl-gGlu-2×OEG), desB30) [Example 23] | 0.02 % rel to HI |  | hIR-A 0% HSA (% rel to HI) [1]: 2.89 % rel to HI; hIR-A 1.5% HSA (% rel to HI) [2]: 0.14 % rel to HI; EC50 (HepG2 cells; Table 5, example numbers): 126 nM
EGF(A)(301L, 309R, 312E, 321E)-[GAQP]119-Insulin(B3E, B29K(octadecanedioyl-gGlu-2×OEG), desB30) [Example 21] | 0.07 % rel to HI |  | 
EGF(A)(301L, 309R, 312E, 321E)-[GAQP]2-Insulin(B29K(eicosanedioyl-gGlu-2×OEG), desB30) [Example 7] |  | 0.18 % rel to HI | Ki (PCSK9; [6]): 1.74 nM
